Test results from patent US8962609B2, “Pyrimidine compounds as inhibitors of protein kinases IKK epsilon and/or TBK-1, processes for their preparation, and pharmaceutical compositions containing them” (Domainex Limited, priority 2010, dated 2015).

Legend:
TBK-1 = TBK-1 (Homo sapiens (Human), UniProt Q9UHD2); experiment: biochemical; conditions: 20 μM ATP (apparent Km), 8 nM kinase, 2.5 hr; values are activity bands; read-out: Inhibition of TBK-1 IC50
Procedure: (§1) Compounds of the invention (synthesised as described below) were tested for activity against the IKKε and TBK-1 enzyme as follows:
(§2) Inhibitions studies were performed using a time-resolved fluorescence-based Lanthascreen™ assay. Phosphorylation of a fluorescein-labelled substrate peptide is measured using terbium-labeled phosphospecific antibodies. Terbium is excited at 340 nm and the FRET energy transfer to fluorescein is measured at 495 and 520 nm. The emission ratio between 520 and 495 is a measure of the level of phosphorylation of the substrate by the kinase.
(§3) Kinase inhibition assays (10 μL) were performed at 20° C. in 384-well plate format. Compound IC50 values were determined at the apparent Km for ATP (20 μM) based on a radiometric assay (Invitrogen) using 8 or 10 point curves in duplicate. The final reaction conditions contained 400 nM fluorescein-IkBα substrate ([…]), 20 μM ATP, 2 nM or 8 nM IKKε or TBK1 kinase respectively, and 3% DMSO in kinase assay buffer consisting of 50 mM HEPES (pH 7.5), 10 mM MgCl, 1 mM EGTA, 0.01% Brij-35.
(§4) Compound dilutions were prepared from 10 mM DMSO stocks by dilution into DMSO.
(§5) The kinase phosphorylation assay was initiated by the addition of the kinase and the reaction was allowed to proceed for 1 hr or 2.5 hr for IKKε and TBK-1 kinase respectively. […] The reaction was stopped by the addition of 10 mM EDTA, and phosphorylation was detected after a 1 hr incubation with 1.5 nM terbium-labelled antibody against phosphorylation at Serine 32 on the IkBα[…]peptide, both in TR-FRET dilution buffer (Invitrogen).
(§6) In the data presented for IKKε, <9 μM means having an activity in the range from 300 nM≦9 μM; and <300 nM means having an activity in the range 30 nM≦300 nM; and for the data presented for TBK-1, <3 μM means having an activity in the range 300 nM≦3 μM, and <300 nM means having an activity in the range 30 nM≦300 nM.

IKKε = IKKε (Homo sapiens (Human), UniProt Q14164); experiment: IKKε time-resolved fluorescence Lanthascreen kinase inhibition assay; type: biochemical; conditions: 20 μM ATP (apparent Km), 2 nM kinase, 1 hr; values are activity bands; read-out: Inhibition of IKKε IC50
Procedure: as §1, §2, §3, §4, §5, §6

IKKε, sequence (Q14164 whole entry): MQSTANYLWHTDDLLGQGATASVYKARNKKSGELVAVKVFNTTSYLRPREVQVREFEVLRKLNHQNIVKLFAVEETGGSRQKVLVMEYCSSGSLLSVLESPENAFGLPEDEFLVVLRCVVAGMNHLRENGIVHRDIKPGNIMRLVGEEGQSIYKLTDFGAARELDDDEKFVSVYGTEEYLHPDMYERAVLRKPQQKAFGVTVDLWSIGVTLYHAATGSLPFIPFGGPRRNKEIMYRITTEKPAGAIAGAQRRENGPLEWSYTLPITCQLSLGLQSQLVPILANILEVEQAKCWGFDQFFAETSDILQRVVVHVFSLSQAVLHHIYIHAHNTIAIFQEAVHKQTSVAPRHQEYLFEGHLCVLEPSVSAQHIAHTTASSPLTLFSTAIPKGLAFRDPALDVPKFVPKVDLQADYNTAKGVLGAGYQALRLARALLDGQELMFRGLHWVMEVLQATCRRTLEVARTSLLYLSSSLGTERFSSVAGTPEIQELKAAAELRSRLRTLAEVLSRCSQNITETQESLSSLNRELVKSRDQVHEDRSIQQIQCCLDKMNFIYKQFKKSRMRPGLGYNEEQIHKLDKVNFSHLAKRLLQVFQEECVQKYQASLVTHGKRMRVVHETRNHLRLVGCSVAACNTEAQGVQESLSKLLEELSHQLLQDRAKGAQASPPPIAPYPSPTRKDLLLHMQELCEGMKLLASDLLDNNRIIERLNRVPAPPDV
TBK-1, sequence (Q9UHD2 whole entry): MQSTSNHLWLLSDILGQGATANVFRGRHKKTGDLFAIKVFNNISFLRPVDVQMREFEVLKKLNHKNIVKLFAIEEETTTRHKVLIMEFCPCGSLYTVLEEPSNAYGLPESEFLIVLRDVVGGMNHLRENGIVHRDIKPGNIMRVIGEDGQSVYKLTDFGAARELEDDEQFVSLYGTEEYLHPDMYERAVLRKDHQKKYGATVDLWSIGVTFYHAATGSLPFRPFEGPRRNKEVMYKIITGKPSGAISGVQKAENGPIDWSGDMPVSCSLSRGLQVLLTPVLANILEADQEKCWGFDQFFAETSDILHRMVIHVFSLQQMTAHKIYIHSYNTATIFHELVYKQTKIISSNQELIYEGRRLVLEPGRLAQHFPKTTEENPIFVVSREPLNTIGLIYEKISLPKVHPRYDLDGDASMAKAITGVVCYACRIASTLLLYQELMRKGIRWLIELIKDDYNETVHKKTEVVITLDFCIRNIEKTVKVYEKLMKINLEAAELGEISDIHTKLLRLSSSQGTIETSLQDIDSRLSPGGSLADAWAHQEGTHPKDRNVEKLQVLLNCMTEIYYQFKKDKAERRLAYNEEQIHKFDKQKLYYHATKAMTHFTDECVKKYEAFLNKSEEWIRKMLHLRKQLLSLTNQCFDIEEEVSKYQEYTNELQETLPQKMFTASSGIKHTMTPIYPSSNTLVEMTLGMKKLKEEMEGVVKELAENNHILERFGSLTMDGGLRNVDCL

CC(=O)Nc1ccc(Nc2nccc(-c3ccc(N4CCC[C@H]4C(N)=O)c(C#N)c3)n2)cn1 [DMX-70]
IC50 (TBK-1): 30 to 300 nM
IC50 (IKKε): 30 to 300 nM

N#Cc1cc(-c2ccnc(Nc3cccc(F)c3)n2)ccc1N1CCCC1 [DMX-3]
IC50 (IKKε): 30 to 300 nM

Cc1cc(Nc2nccc(-c3ccc(N4CCCC4)c(C#N)c3)n2)no1 [DMX-25]
IC50 (IKKε): 300 to 9000 nM

N#Cc1cc(-c2ccnc(Nc3cccc(C(F)(F)F)c3)n2)ccc1N1CCCC1 [DMX-2]
IC50 (IKKε): 300 to 9000 nM

CC(=O)N(C)c1ccc(Nc2nccc(-c3ccc(N4CCCC4)c(C#N)c3)n2)cc1 [DMX-37]
IC50 (TBK-1): < 30 nM
IC50 (IKKε): < 30 nM

N#Cc1cc(-c2ccnc(Nc3ccccc3)n2)ccc1N1CCCC1 [DMX-11]
IC50 (IKKε): 300 to 9000 nM

CN(C)CCNc1ccc(Nc2nccc(-c3ccc(N4CCCC4)c(C#N)c3)n2)cn1 [DMX-33]
IC50 (TBK-1): < 30 nM
IC50 (IKKε): < 30 nM

CO[C@H]1CCN(c2ccc(-c3ccnc(Nc4ccc(NC(C)=O)nc4)n3)cc2C#N)C1 [DMX-76]
IC50 (TBK-1): < 30 nM
IC50 (IKKε): < 30 nM

CS(=O)(=O)c1cccc(Nc2nccc(-c3ccc(N4CCCC4)c(C#N)c3)n2)c1 [DMX-10]
IC50 (TBK-1): < 30 nM
IC50 (IKKε): < 30 nM

CN(C)CCNC(=O)c1cccc(Nc2nccc(-c3ccc(N4CCCC4)c(C#N)c3)n2)c1 [DMX-45]
IC50 (IKKε): < 30 nM

N#Cc1cc(-c2ccnc(Nc3ncc(C(N)=O)o3)n2)ccc1N1CCCC1 [DMX-38]
IC50 (IKKε): 300 to 9000 nM

N#Cc1cc(-c2ccnc(Nc3cccnc3)n2)ccc1N1CCCC1 [DMX-18]
IC50 (IKKε): < 30 nM

CN(C)CCN(C)c1ccc(Nc2nccc(-c3ccc(N4CCCC4)c(C#N)c3)n2)cn1 [DMX-34]
IC50 (TBK-1): < 30 nM
IC50 (IKKε): < 30 nM

CN1CCN(c2ccc(Nc3nccc(-c4ccc(N5CCC[C@@H]5C(N)=O)c(C#N)c4)n3)cn2)CC1 [DMX-55]
IC50 (TBK-1): < 30 nM
IC50 (IKKε): < 30 nM

CC(=O)Nc1ccc(Nc2nccc(-c3ccc(N4CCOCC4)c(C#N)c3)n2)cn1 [DMX-46]
IC50 (TBK-1): < 30 nM
IC50 (IKKε): 30 to 300 nM

Cn1cncc1Nc1nccc(-c2ccc(N3CCCC3)c(C#N)c2)n1 [DMX-60]
IC50 (TBK-1): 30 to 300 nM
IC50 (IKKε): 30 to 300 nM

Cn1nc(C(N)=O)cc1Nc1nccc(-c2ccc(N3CCCC3)c(C#N)c2)n1 [DMX-41]
IC50 (IKKε): 30 to 300 nM

CN(C)CCNc1ccc(Nc2nccc(-c3ccc(N4CCC(O)CC4)c(C#N)c3)n2)cn1 [DMX-65]
IC50 (TBK-1): 30 to 300 nM
IC50 (IKKε): 30 to 300 nM

CC(=O)Nc1ccc(Nc2nccc(-c3ccc(N4CC[C@@H](O)C4)c(C#N)c3)n2)cn1 [DMX-73]
IC50 (TBK-1): < 30 nM
IC50 (IKKε): < 30 nM

CN1CCC(Nc2ccc(Nc3nccc(-c4ccc(N5CC[C@H](O)C5)c(C#N)c4)n3)cn2)CC1 [DMX-79]
IC50 (TBK-1): < 30 nM
IC50 (IKKε): < 30 nM

N#Cc1cc(-c2ccnc(Nc3nc(C(N)=O)co3)n2)ccc1N1CCCC1 [DMX-39]
IC50 (IKKε): 300 to 9000 nM

CN1CCC(Nc2ccc(Nc3nccc(-c4ccc(N5CC[C@H](F)C5)c(C#N)c4)n3)cn2)CC1 [DMX-78]
IC50 (TBK-1): < 30 nM
IC50 (IKKε): < 30 nM

CN(C)CCNc1ccc(Nc2nccc(-c3ccc(N4CC[C@H](O)C4)c(C#N)c3)n2)cn1 [DMX-62]
IC50 (TBK-1): < 30 nM
IC50 (IKKε): < 30 nM

CC(=O)Nc1ccc(Nc2nccc(-c3ccc(N4CC[C@H](O)C4)c(C#N)c3)n2)cn1 [DMX-48]
IC50 (TBK-1): < 30 nM
IC50 (IKKε): < 30 nM

CN(C)CCOc1ccc(Nc2nccc(-c3ccc(N4CCCC4)c(C#N)c3)n2)cn1 [DMX-61]
IC50 (TBK-1): < 30 nM
IC50 (IKKε): < 30 nM

CN(C)CCNc1ccc(Nc2nccc(-c3ccc(N4CCC[C@@H]4C(N)=O)c(C#N)c3)n2)cn1 [DMX-72]
IC50 (TBK-1): 30 to 300 nM
IC50 (IKKε): 30 to 300 nM

CNC(=O)C1CCN(c2ccc(-c3ccnc(Nc4ccc(NC(C)=O)nc4)n3)cc2C#N)CC1 [DMX-68]
IC50 (TBK-1): 30 to 300 nM
IC50 (IKKε): 30 to 300 nM

CC(=O)Nc1ccc(Nc2nccc(-c3ccc(N4CCCC4)c(C#N)c3)n2)cn1 [DMX-15]
IC50 (TBK-1): < 30 nM
IC50 (IKKε): < 30 nM

CN1CCN(C(=O)c2cccc(Nc3nccc(-c4ccc(N5CCCC5)c(C#N)c4)n3)c2)CC1 [DMX-43]
IC50 (IKKε): < 30 nM

CN1CCN(c2ccc(Nc3nccc(-c4ccc(N5CC[C@H](O)C5)c(C#N)c4)n3)cn2)CC1 [DMX-54]
IC50 (TBK-1): < 30 nM
IC50 (IKKε): < 30 nM

CN1CCC(Nc2ccc(Nc3nccc(-c4ccc(N5CCC(F)(F)C5)c(C#N)c4)n3)cn2)CC1 [DMX-80]
IC50 (TBK-1): < 30 nM
IC50 (IKKε): < 30 nM

CC(=O)Nc1ccc(Nc2nccc(-c3ccc(N4CCC(C(N)=O)CC4)c(C#N)c3)n2)cn1 [DMX-50, 1-{4-[2-(6-Acetylamino-pyridin-3-ylamino)-pyrimidin-4-yl]-2-cyano-phenyl}-piperidine-4-carboxylic acid amide]
IC50 (TBK-1): 30 to 300 nM
IC50 (IKKε): < 30 nM

Cc1cnc(Nc2nccc(-c3ccc(N4CCCC4)c(C#N)c3)n2)s1 [DMX-30]
IC50 (IKKε): 300 to 9000 nM

N#Cc1cc(-c2ccnc(Nc3ccccn3)n2)ccc1N1CCCC1 [DMX-13]
IC50 (IKKε): 300 to 9000 nM

C[C@H]1CCCN1c1ccc(-c2ccnc(Nc3ccc(NCCN(C)C)nc3)n2)cc1C#N [DMX-63]
IC50 (TBK-1): < 30 nM
IC50 (IKKε): < 30 nM

COc1ccc(Nc2nccc(-c3ccc(N4CCCC4)c(C#N)c3)n2)cn1 [DMX-58]
IC50 (TBK-1): < 30 nM
IC50 (IKKε): < 30 nM

Cc1cc(C(N)=O)ccc1Nc1nccc(-c2ccc(N3CCCC3)c(C#N)c2)n1 [DMX-21]
IC50 (TBK-1): 30 to 300 nM
IC50 (IKKε): 30 to 300 nM

N#Cc1cc(-c2ccnc(Nc3ccn(CC(N)=O)n3)n2)ccc1N1CCCC1 [DMX-59]
IC50 (TBK-1): 30 to 300 nM
IC50 (IKKε): 30 to 300 nM

Cn1nccc1Nc1nccc(-c2ccc(N3CCC[C@@H]3C(N)=O)c(C#N)c2)n1 [DMX-53]
IC50 (TBK-1): 300 to 3000 nM
IC50 (IKKε): 30 to 300 nM

CN(C)CC(=O)Nc1ccc(Nc2nccc(-c3ccc(N4CCCC4)c(C#N)c3)n2)cn1 [DMX-49]
IC50 (TBK-1): < 30 nM
IC50 (IKKε): < 30 nM

CN1CCC(Nc2ccc(Nc3nccc(-c4ccc(N5CC[C@@H](F)C5)c(C#N)c4)n3)cn2)CC1 [DMX-77]
IC50 (TBK-1): < 30 nM
IC50 (IKKε): < 30 nM

CN(C)CCNc1ccc(Nc2nccc(-c3ccc(N4CCC(C(N)=O)CC4)c(C#N)c3)n2)cn1 [DMX-64]
IC50 (TBK-1): 30 to 300 nM
IC50 (IKKε): < 30 nM

Cn1cnc(Nc2nccc(-c3ccc(N4CCCC4)c(C#N)c3)n2)c1 [DMX-57]
IC50 (TBK-1): 30 to 300 nM
IC50 (IKKε): 30 to 300 nM

Cn1nccc1Nc1nccc(-c2ccc(N3CCCC3)c(C#N)c2)n1 [DMX-27]
IC50 (TBK-1): < 30 nM
IC50 (IKKε): 30 to 300 nM

Cn1cc(Nc2nccc(-c3ccc(N4CCC(C(N)=O)CC4)c(C#N)c3)n2)cn1 [DMX-75]
IC50 (TBK-1): 30 to 300 nM
IC50 (IKKε): < 30 nM

Cn1ccc(Nc2nccc(-c3ccc(N4CCCC4)c(C#N)c3)n2)n1 [DMX-29]
IC50 (TBK-1): 30 to 300 nM
IC50 (IKKε): 30 to 300 nM

Cc1cc(Nc2nccc(-c3ccc(N4CCCC4)c(C#N)c3)n2)on1 [DMX-26]
IC50 (TBK-1): 30 to 300 nM
IC50 (IKKε): 30 to 300 nM

CC(=O)Nc1ccc(Nc2nccc(-c3ccc(N4CCC[C@@H]4C(N)=O)c(C#N)c3)n2)cn1 [DMX-51]
IC50 (TBK-1): 30 to 300 nM
IC50 (IKKε): 30 to 300 nM

CNC(=O)[C@H]1CCCN1c1ccc(-c2ccnc(Nc3ccc(NC(C)=O)nc3)n2)cc1C#N [DMX-67]
IC50 (TBK-1): < 9000 nM
IC50 (IKKε): 300 to 9000 nM

COc1ccc(Nc2nccc(-c3ccc(N4CCCC4)c(C#N)c3)n2)cc1 [DMX-6]
IC50 (IKKε): < 30 nM

COC[C@H]1CCCN1c1ccc(-c2ccnc(Nc3ccc(NC(C)=O)nc3)n2)cc1C#N [DMX-71]
IC50 (TBK-1): < 30 nM
IC50 (IKKε): < 30 nM

Cn1nc(Nc2nccc(-c3ccc(N4CCCC4)c(C#N)c3)n2)cc1C(N)=O [DMX-40]
IC50 (IKKε): 30 to 300 nM

N#Cc1cc(-c2ccnc(Nc3ccc(F)cc3)n2)ccc1N1CCCC1 [DMX-4]
IC50 (IKKε): 30 to 300 nM

CN(C)c1ccc(Nc2nccc(-c3ccc(N4CCCC4)c(C#N)c3)n2)cn1 [DMX-20]
IC50 (TBK-1): < 30 nM
IC50 (IKKε): < 30 nM

Cn1nccc1Nc1nccc(-c2ccc(N3CC[C@H](O)C3)c(C#N)c2)n1 [DMX-52]
IC50 (TBK-1): 30 to 300 nM
IC50 (IKKε): 30 to 300 nM

Cn1cc(Nc2nccc(-c3ccc(N4CC[C@H](O)C4)c(C#N)c3)n2)cn1 [DMX-74]
IC50 (TBK-1): < 30 nM
IC50 (IKKε): < 30 nM

CC(=O)Nc1ccc(Nc2nccc(-c3ccc(N4CCN(C)CC4)c(C#N)c3)n2)cn1 [DMX-47]
IC50 (TBK-1): 30 to 300 nM
IC50 (IKKε): 30 to 300 nM

COc1cccc(Nc2nccc(-c3ccc(N4CCCC4)c(C#N)c3)n2)c1 [DMX-5]
IC50 (IKKε): < 30 nM

N#Cc1cc(-c2ccnc(Nc3ccncc3)n2)ccc1N1CCCC1 [DMX-12]
IC50 (IKKε): 300 to 9000 nM

CN1CCC(NC(=O)c2cccc(Nc3nccc(-c4ccc(N5CCCC5)c(C#N)c4)n3)c2)CC1 [DMX-44]
IC50 (IKKε): < 30 nM

CC(=O)Nc1cccc(Nc2nccc(-c3ccc(N4CCCC4)c(C#N)c3)n2)c1 [DMX-7]
IC50 (TBK-1): < 30 nM
IC50 (IKKε): < 30 nM

Cc1csc(Nc2nccc(-c3ccc(N4CCCC4)c(C#N)c3)n2)n1 [DMX-32]
IC50 (IKKε): 300 to 9000 nM

N#Cc1cc(-c2ccnc(Nc3cccc(C(=O)O)c3)n2)ccc1N1CCCC1 [DMX-42]
IC50 (IKKε): < 30 nM
